According to patent US8513271B2, “Pyrimidine compounds as delta opioid receptor modulators” (Janssen Pharmaceutica, NV, priority 2009, dated 2013):
Read-outs that look alike come from different tables or passages of the source.

Tests used:
delta opioid receptor [1] = target: T1, delta opioid receptor (Mus musculus, UniProt P32300); assay: [35S]GTPγS binding assay in NG108-15 cell membranes (delta opioid functional assay), 200 nM screen; type: biochemical; conditions: for GTPγS δ-RelEfficacy @200 nM: 200 nM test compound, relative to calculated max of SNC80 dose response curve; for GTPγS δ-RelEfficacy @200 nM / EC50 / GTPγS δ-opioid receptor Rel Efficacy: NG108-15 cell membranes; for GTPγS δ-RelEfficacy @200 nM / EC50: averages if tested more than once; for GTPγS δ-opioid receptor Rel Efficacy: relative efficacy from dose response
T1 construct: NG108-15 cell membranes were purchased from Applied Cell Sciences (Rockville, Md.); host or cells: NG108-15 cell membranes

[2] = target: hMOR (mu opioid receptor) (Homo sapiens, UniProt P35372); assay: [35S]GTPγS binding assays in CHO-hMOR cell membranes (mu opioid functional assay); type: biochemical; conditions: for inhibition at 10 µM: read-out: GTPγS μ-opioid receptor % Inh @10 μM; for GTPγS μ-opioid receptor % Inh @10 μM: inhibition of agonist-stimulated GTPγS binding
delta opioid receptor [3] = target: T2, delta opioid receptor (Rattus norvegicus, UniProt P33533); assay: Rat brain delta opioid receptor binding assay; conditions: rat forebrain, [3H]naltrindole ligand; read-out: δ-binding (Naltrindole ligand) Ki
T2 construct: the forebrains were homogenized in Tris buffer in a Teflon®-glass homogenizer; from tissue; host or cells: forebrain of male Wistar rats, particulate (membrane) preparation

delta opioid receptor [4] = target: T1, delta opioid receptor; assay: NG108-15, 24-well delta opioid receptor binding assay
mu opioid receptor = target: T3, mu opioid receptor (Rattus norvegicus, UniProt P33535); assay: Rat brain mu opioid receptor binding assay; conditions: rat forebrain, [3H]DAMGO ligand
T3 construct: the forebrains were homogenized in Tris buffer in a Teflon®-glass homogenizer; from tissue; host or cells: forebrain of male Wistar rats, particulate (membrane) preparation

[5] = GTPγS δ-opioid receptor EC50 (μM)
[6] = read-out: GTPγS δ-opioid receptor EC50
[7] = [3H]Naltrindole ligand, NG108-15 cell membranes, read-out: δ-binding NG108 cell membrane Ki

T2 sequence (P33533 whole entry): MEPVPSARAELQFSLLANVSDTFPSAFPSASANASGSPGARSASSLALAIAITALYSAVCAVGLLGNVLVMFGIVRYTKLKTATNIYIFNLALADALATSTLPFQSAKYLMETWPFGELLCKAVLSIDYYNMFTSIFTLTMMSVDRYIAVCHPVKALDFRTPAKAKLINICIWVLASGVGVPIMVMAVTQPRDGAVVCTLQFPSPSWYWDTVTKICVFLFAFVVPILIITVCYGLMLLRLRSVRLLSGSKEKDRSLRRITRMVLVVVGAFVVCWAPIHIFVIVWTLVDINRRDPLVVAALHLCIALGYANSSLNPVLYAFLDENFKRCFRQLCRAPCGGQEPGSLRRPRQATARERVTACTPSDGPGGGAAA
T1 sequence (P32300 whole entry): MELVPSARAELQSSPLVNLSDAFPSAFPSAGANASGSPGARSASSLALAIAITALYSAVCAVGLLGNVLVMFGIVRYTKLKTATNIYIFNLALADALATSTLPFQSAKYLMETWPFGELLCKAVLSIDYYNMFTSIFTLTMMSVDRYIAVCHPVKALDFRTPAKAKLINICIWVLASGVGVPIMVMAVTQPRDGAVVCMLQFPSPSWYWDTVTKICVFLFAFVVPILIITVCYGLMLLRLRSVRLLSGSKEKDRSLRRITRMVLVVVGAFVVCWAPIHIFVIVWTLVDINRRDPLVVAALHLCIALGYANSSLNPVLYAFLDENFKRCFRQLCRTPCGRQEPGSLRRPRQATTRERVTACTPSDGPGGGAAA
T3 sequence (P33535 whole entry): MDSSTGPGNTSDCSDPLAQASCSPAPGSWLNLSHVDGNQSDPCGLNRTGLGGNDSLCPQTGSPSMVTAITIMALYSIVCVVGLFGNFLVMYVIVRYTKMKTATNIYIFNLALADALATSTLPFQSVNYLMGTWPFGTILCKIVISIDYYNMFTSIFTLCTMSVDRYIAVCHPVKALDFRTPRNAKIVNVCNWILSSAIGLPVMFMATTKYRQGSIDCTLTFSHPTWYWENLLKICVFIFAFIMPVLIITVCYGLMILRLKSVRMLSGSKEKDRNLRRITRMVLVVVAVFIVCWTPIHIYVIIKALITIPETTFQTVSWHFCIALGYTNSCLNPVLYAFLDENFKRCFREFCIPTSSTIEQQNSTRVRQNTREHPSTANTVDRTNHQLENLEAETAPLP
Sequence of hMOR (mu opioid receptor) (P35372 whole entry, looked up): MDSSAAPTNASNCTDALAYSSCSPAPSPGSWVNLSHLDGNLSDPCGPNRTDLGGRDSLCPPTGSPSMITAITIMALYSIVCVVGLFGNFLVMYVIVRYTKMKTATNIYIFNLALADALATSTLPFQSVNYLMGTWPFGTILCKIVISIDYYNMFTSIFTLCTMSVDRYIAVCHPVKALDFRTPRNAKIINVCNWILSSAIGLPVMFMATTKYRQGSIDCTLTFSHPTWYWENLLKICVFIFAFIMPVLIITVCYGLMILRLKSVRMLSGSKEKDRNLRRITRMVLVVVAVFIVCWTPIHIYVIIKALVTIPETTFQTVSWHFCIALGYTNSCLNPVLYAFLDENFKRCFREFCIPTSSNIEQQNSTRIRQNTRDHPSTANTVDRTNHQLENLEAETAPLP

Ki (delta opioid receptor [4]; [7]) | Structure (SMILES) | GTPγS δ-RelEfficacy @200 nM (delta opioid receptor [1]) | EC50 (delta opioid receptor [1]; [5]) | GTPγS δ-opioid receptor Rel Efficacy (delta opioid receptor [1]) | inhibition at 10 µM [2] | further results
– | COc1ccc(Oc2nc(-c3cncc(C#N)c3)ncc2N2CCNC[C@@H]2C)cc1 [Cpd 345] | 0.989 | 0.001 µM | 1.089 | 0% | EC50 [2]: 1930 nM
– | COc1ccc(Oc2nc(-c3cncc(SC)c3)ncc2N[C@H]2CCNC2)cc1 [Cpd 255] | – | 0.0464 µM | 0.997 | 17.1% | –
– | Fc1cncc(-c2ncc(NC[C@@H]3CCCN3)c(Oc3ccc(OCC(F)(F)F)cc3)n2)c1 [Cpd 124] | – | – | – | – | Ki (delta opioid receptor [3]): 126 nM; Ki (delta opioid receptor [4]): 0.3 nM
– | COc1ccc(Oc2nc(-c3cncc(OC)c3)ncc2N[C@H]2CCCNC2)cc1 [Cpd 245] | – | 0.0127 µM | 1.095 | 4.26% | –
1.54 nM | COc1ccc(-c2ncc(NC[C@@H]3CCCN3)c(Oc3ccc(O)cc3)n2)cn1 [Cpd 59] | – | – | 1.0063 | – | EC50 (delta opioid receptor [1]; [6]): 0.433 µM; inhibition at 10 µM (delta opioid receptor [1]; read-out: GTPγS δ-opioid receptor % Inh @10 μM): 1.48%; Ki (delta opioid receptor [3]): 0.954 nM; Ki (mu opioid receptor; read-out: μ-binding Ki): 1610 nM
– | COc1ccc(Oc2nc(-c3cncc(SC)c3)ncc2N[C@H]2CCCNC2)cc1 [Cpd 252] | – | 0.025 µM | 1.007 | 2.48% | –
– | COc1ccc(Oc2nc(-c3cncc(OC)c3)ncc2N[C@H]2CCNC2)cc1 [Cpd 256] | – | 0.034 µM | 1.004 | 6.2% | –
– | Cc1ccc(Oc2nc(-c3cncc(C#N)c3)ncc2NC[C@@H]2CCCN2)cc1 [Cpd 147] | – | 0.051 µM | 1.077 | – | Ki (delta opioid receptor [4]): 0.4 nM; Ki (mu opioid receptor; μ-binding Ki): 438 nM
– | COc1ccc(Oc2nc(-c3cncc(C#N)c3)ncc2NC[C@H]2C[C@H](N)C2)cc1 [Cpd 301] | – | 0.087 µM | 1.085 | – | Ki (delta opioid receptor [4]): 0.5 nM; Ki (mu opioid receptor; μ-binding Ki): 658 nM
– | COc1ccc(Oc2nc(-c3cncc(SC)c3)ncc2NC[C@@H]2C[C@@H](F)CN2)cc1 [Cpd 234] | 0.847 | 0.034 µM | 0.987 | 7.29% | –
– | COCc1ccc(Oc2nc(-c3cncnc3)ncc2NC[C@@H]2CCCN2)cc1 [Cpd 154] | 0.164 | – | – | – | Ki (delta opioid receptor [4]): 9 nM
– | COc1ccc(Oc2nc(-c3cncnc3)ncc2NC2CC(N)C2)cc1 (centres unmarked) [Cpd 304] | 0.228 | – | – | – | Ki (delta opioid receptor [4]): 2 nM
8 nM | CC(C)Oc1ccc(Oc2nc(-c3cncnc3)ncc2NC[C@@H]2CCCN2)cc1 [Cpd 140] | 0.137 | – | – | – | –
1 nM | Cc1ccc(Oc2nc(-c3cccnc3)ncc2NC[C@@H]2CCCN2)cc1 [Cpd 149] | 0.403 | – | 1.026 | – | EC50 (delta opioid receptor [1]; [6]): 0.236 µM
– | COc1ccc(Oc2nc(-c3cccnc3)ncc2N2CCNC(C)(C)C2)cc1 [Cpd 355] | – | – | 1.002 | – | EC50 (delta opioid receptor [1]; [6]): 0.022 µM; GTPγS μ-opioid receptor % Inh @10 μM ([2]; CHO-hMOR cell membranes): 0.000%; EC50 ([2]; CHO-hMOR cell membranes, read-out: GTPγS μ-opioid receptor EC50): 243 nM
– | COCc1ccc(Oc2nc(-c3cccnc3)ncc2NC[C@@H]2CCCN2)cc1 [Cpd 155] | 0.170 | – | – | – | Ki (delta opioid receptor [4]): 5 nM
50 nM | O=C(c1cccc(Oc2nc(-c3cccnc3)ncc2NC[C@@H]2CCCN2)c1)N1CCOCC1 [Cpd 168] | 0.300 | – | – | – | –
0.2 nM | COc1ccc(Oc2nc(-c3cncc(F)c3)ncc2NC[C@@H]2CCCN2)cc1F [Cpd 131] | 0.819 | – | 1.063 | – | EC50 (delta opioid receptor [1]; [6]): 0.076 µM
– | COc1ccc(Oc2nc(-c3cccnc3)ncc2N[C@H]2CCCNC2)cc1 [Cpd 236] | 1.026 | 0.017 µM | 1.042 | 6.2% | –

Ki (delta opioid receptor [4]; [7]) | Structure (SMILES) | GTPγS δ-RelEfficacy @200 nM (delta opioid receptor [1]) | EC50 (delta opioid receptor [1]; [5]) | GTPγS δ-opioid receptor Rel Efficacy (delta opioid receptor [1]) | inhibition at 10 µM [2] | further results
– | COc1ccc(Oc2nc(-c3cccnc3)ncc2N2CCN[C@H](C)C2)cc1 [Cpd 357, 4-(4-Methoxy-phenoxy)-5-[3-(R)-methyl-piperazin-1-yl]-2-pyridin-3-yl-pyrimidine] | – | 0.005 µM | 0.929 | 11.5% | EC50 [2]: 1830 nM
– | COc1ccc(Oc2nc(-c3cccnc3)ncc2N[C@H]2CCNC2)cc1 [Cpd 237] | – | – | – | – | GTPγS μ-opioid receptor % Inh @10 μM ([2]; CHO-hMOR cell membranes): 3.524%
3 nM | CC(C)Oc1ccc(Oc2nc(-c3cccnc3)ncc2NC[C@@H]2CCCN2)cc1 [Cpd 141] | 0.149 | – | – | – | –
– | COc1ccc(Oc2nc(-c3cncc(SC)c3)ncc2N2CCNCC2)cc1 [Cpd 341] | – | 0.041 µM | 0.788 | 0% | –
1 nM | COc1ccc(Oc2nc(-c3cncnc3)ncc2NC[C@H]2C[C@H](N)C2)cc1 [Cpd 302] | 0.393 | – | – | – | –
– | Oc1ccc(Oc2nc(-c3cncnc3)ncc2NC[C@@H]2CCCN2)cc1 [Cpd 156, 4-{5-[(Pyrrolidin-2-(S)-ylmethyl)-amino]-[2,5]bipyrimidinyl-4-yloxy}-phenol] | – | – | – | – | EC50 (delta opioid receptor [1]; [6]): 0.177 µM; Ki (delta opioid receptor [4]): 1 nM
– | COc1ccc(Oc2nc(-c3cncc(C#N)c3)ncc2N2CCNC(C)C2)cc1 (racemic) [Cpd 343] | 0.985 | 0.001 µM | 1.105 | 7.29% | EC50 [2]: 1980 nM
2 nM | CC(C)Oc1ccc(Oc2nc(-c3cncc(C#N)c3)ncc2NC[C@@H]2CCCN2)cc1 [Cpd 139] | – | – | 1.118 | – | EC50 (delta opioid receptor [1]; [6]): 2.27 µM
1 nM | Cc1ccc(Oc2nc(-c3cncnc3)ncc2NC[C@@H]2CCCN2)cc1 [Cpd 148] | 0.411 | – | 1.052 | – | EC50 (delta opioid receptor [1]; [6]): 0.158 µM
– | O=C(c1cccc(Oc2nc(-c3cccnc3)ncc2NC[C@@H]2CCCN2)c1)N1CCCC1 [Cpd 166] | 0.169 | – | – | – | Ki (delta opioid receptor [4]): 27 nM
21 nM | O=C(c1cccc(Oc2nc(-c3cccnc3)ncc2NC[C@@H]2CCCN2)c1)N1CCCCC1 [Cpd 167] | 0.328 | – | – | – | –
– | COc1ccc(Oc2nc(-c3cncc(SC)c3)ncc2N2CCCNCC2)cc1 [Cpd 347] | – | 0.069 µM | 0.898 | -0.404% | –
– | OCc1ccc(Oc2nc(-c3cncnc3)ncc2NC[C@@H]2CCCN2)cc1 [Cpd 144] | 0.191 | – | – | – | Ki (delta opioid receptor [4]): 7 nM
– | CSc1ccc(Oc2nc(-c3cncc(C#N)c3)ncc2NC[C@@H]2CCCN2)cc1 [Cpd 150] | 0.801 | 0.033 µM | 1.093 | – | Ki (delta opioid receptor [4]): 0.3 nM
1 nM | N#Cc1cncc(-c2ncc(NC[C@@H]3CCCN3)c(Oc3ccc(CO)cc3)n2)c1 [Cpd 143] | – | – | 1.066 | – | EC50 (delta opioid receptor [1]; [6]): 0.69 µM
– | COc1ccc(Oc2nc(-c3cncc(OC)c3)ncc2N2CC[C@@H](N)C2)cc1 [Cpd 349] | – | 0.082 µM | 0.929 | 0% | –
0.4 nM | COc1ccc(Oc2nc(-c3cncnc3)ncc2NC[C@@H]2CCCN2)cc1F [Cpd 133] | 0.755 | – | 1.041 | – | EC50 (delta opioid receptor [1]; [6]): 0.028 µM
0.4 nM | CSc1ccc(Oc2nc(-c3cccnc3)ncc2NC[C@@H]2CCCN2)cc1 [Cpd 152] | 0.607 | – | 1.083 | – | EC50 (delta opioid receptor [1]; [6]): 0.07 µM

Structure (SMILES) | Ki (delta opioid receptor [4]; [7]) | GTPγS δ-RelEfficacy @200 nM (delta opioid receptor [1]) | EC50 (delta opioid receptor [1]; [5]) | GTPγS δ-opioid receptor Rel Efficacy (delta opioid receptor [1]) | inhibition at 10 µM [2] | further results
COc1ccc(Oc2nc(-c3cncnc3)ncc2NCC2COCCN2)cc1 (racemic) [Cpd 278] | 1.64 nM | 0.263 | – | – | – | Ki (delta opioid receptor [3]): 999 nM
